Measured values published in patent publication US8293705B2, “HCV protease inhibitors and uses thereof” (Avila Therapeutics, Inc., priority 2007, dated 2012).
pIC50: −log10 of the molar value.

Legend:
[1] = system: HCV RNA replicon in cell line ET (luc-ubi-neo/ET), human Huh7 hepatoma; assay: HCV RNA replicon assay, Example 14 Method A; assay type: cell-based; details: Hepatitis C virus, Huh-7, assay of Example 14, 72 hr; for pIC50: read-out: Inhibition, Replicon (IC50); for IC90: read-out: Inhibition, Replicon, IC90 value
Experimental: The compounds were assayed to evaluate the antiviral activity and cytotoxicity of compounds in vitro using HCV RNA replicons. This assay used the cell line ET (luc-ubi-neo/ET), which is a human Huh7 hepatoma cell line that contains an HCV RNA replicon with a stable luciferase (Luc) reporter and three cell culture-adaptive mutations. […]
The ET cell line was grown in Dulbecco's modified essential media (DMEM), 10% fetal bovine serum (FBS), 1% penicillin-streptomycin (pen-strep), 1% glutamine, 250 μg/mL G418 in a 5% CO2 incubator at 37° C. All cell culture reagents were obtained from Mediatech (Manassas, Va.). Cells were trypsinized (1% trypsin:EDTA) and plated out at 5×10^3 cells/well in white 96-well assay plates (Costar) dedicated to cell number (cytotoxicity) or antiviral activity assessments. Drugs were added at six 3-fold concentrations each and the assay was run in DMEM, 5% FBS, 1% pen-strep, 1% glutamine. Human interferon alpha-2b (PBL Biolabs, New Brunswick, N.J.) was included in each run as a positive control compound. Cells were processed 72 hr post drug addition when the cells are still subconfluent. Antiviral activity was measured by analyzing replicon-derived luciferase activity using the Steady-Glo Luciferase Assay System (Promega, Madison, Wis.) according to manufacturer's instruction. The number of cells in each well was determined by CytoTox-1 reagent (Promega). Compound profile was derived by calculating applicable EC50 (effective concentration inhibiting virus replication by 50%), EC90 (effective concentration inhibiting virus replication by 90%), IC50 (concentration decreasing cell viability by 50%) and SI50 (selective index: […]) values.

[2] = target: T1, HCV NS3/4A wild type (Hepatitis C virus genotype 1b, UniProt Q9WMX2); assay: Mass spectrometric analysis of covalent modification (MALDI-TOF); assay type: binding; details: 10× excess of test compound to protein; for Covalent modification of HCV NS3/4A wild type: MALDI-TOF
T1 construct: HCV NS3/4A wild type (wt) was incubated for 1 hr at a 10× fold access of test compound to protein; purchased Bioenza, Calif
Experimental: Mass spectrometric analysis of HCV wild type or HCV variant C159S in the presence of test compound is performed. 100 pmols of HCV wild type (Bioenza, Calif.) is incubated with test compound for 1 hr and 3 hrs at 10-fold access of test compound to protein. 1 ul aliquots of the samples (total volume of 4.24 ul) are diluted with 10 ul of 0.1% TFA prior to micro C4 ZipTipping directly onto the MALDI target using Sinapinic acid as the desorption matrix (10 mg/mL in 0.1% TFA:Acetonitrile 50:50). Analyses are performed on a Shimadzu Biotech Axima TOF2 (Shimadzu Instruments) matrix-assisted-laser desorption/ionization Time-of-Flight (MALDI-TOF) mass spectrometer. The same procedure is carried out on 100 pmols of HCV C159S mutant of HCV protease for 3 hrs at 10-fold excess of test compound to protein.
As depicted in FIGS. 1 and 2, mass spectrometric analysis of HCV wild type in the presence of test compounds I-1 and I-25 was performed using the following protocol: HCV NS3/4A wild type (wt) was incubated for 1 hr at a 10× fold access of test compound to protein. 2 ul aliquots of the samples were diluted with 10 ul of 0.1% TFA prior to micro C4 ZipTipping directly onto the MALDI target using Sinapinic acid as the desorption matrix (10 mg/ml in 0.1% TFA:Acetonitrile 50:50). For intact protein mass measurement the instrument was set in linear mode using a pulsed extraction setting of 24,500 and apomyoglobin as the standard to calibrate the instrument.

[3] = target: T2, HCV NS3/4A 1b protease D168A (Hepatitis C virus genotype 1b, UniProt Q9WMX2, D1194A); assay: HCV protease FRET assay (IC50_APP), Example 16; assay type: biochemical
T2 construct: 10× stocks of NS3/4A protease enzyme from Bioenza (Mountain View, Calif.); purchased Bioenza (Mountain View, Calif.)
Experimental: (§1) The following protocol was used to generate “apparent” IC50 (IC50 APP) values as depicted in Table 6, below. […] 5 μL of each enzyme were added to Corning (#3575) 384-well, black, microtiter plates (Corning, N.Y.) after spotting a 0.5 μL volume of 50% DMSO and serially diluted compounds prepared in 50% DMSO. Protease reactions were immediately started after enzyme addition with the addition of 45 μL of the FRET substrate and monitored for 60-90 minutes at λex485/λem520 in a Synergy^4 plate reader from BioTek (Winooski, Vt.). At the conclusion of each assay, progress curves from each well were examined for linear reaction kinetics and fit statistics (R^2, 95% confidence intervals, absolute sum of squares).
(§2) The compound numbers correspond to the compound numbers in Table 3. […] ;

[4] = target: T3, HCV NS3/4A 1b protease wild type (Hepatitis C virus genotype 1b, UniProt Q9WMX2); assay: HCV protease FRET assay (IC50_APP), Example 16; assay type: biochemical
T3 construct: 10× stocks of NS3/4A protease enzyme from Bioenza (Mountain View, Calif.); purchased Bioenza (Mountain View, Calif.)
Experimental: as §1, §2

[5] = target: T4, HCV NS3/4A 1b protease A156T (Hepatitis C virus genotype 1b, UniProt Q9WMX2, A1182T); assay: HCV protease FRET assay (IC50_APP), Example 16; assay type: biochemical
T4 construct: 10× stocks of NS3/4A protease enzyme from Bioenza (Mountain View, Calif.); purchased Bioenza (Mountain View, Calif.)
Experimental: as §1, §2

[6] = target: T5, HCV NS3/4A 1b protease R155K (Hepatitis C virus genotype 1b, UniProt Q9WMX2, R1181K); assay: HCV protease FRET assay (IC50_APP), Example 16; assay type: biochemical; details: reaction started immediately after enzyme addition, read-out: Inhibition (apparent IC50, IC50_APP), HCV R155K
T5 construct: 10× stocks of NS3/4A protease enzyme from Bioenza (Mountain View, Calif.); purchased Bioenza (Mountain View, Calif.)
Experimental: as §1, §2

SMILES | pIC50 [1] | IC90 [1] [nM] | Covalent modification of HCV NS3/4A wild type [2] | pIC50 [3] | pIC50 [4] | pIC50 [5] | pIC50 [6] | Mass increase of new protein species vs protein with no compound ([2]; 1 hr) [Da]
C=C[C@@H]1C[C@]1(NC(=O)[C@@H]1C[C@@H](OC(=O)N2Cc3cccc(F)c3C2)CN1C(=O)[C@H](CNS(=O)(=O)C=C)NC(=O)OC(C)(C)C)C(=O)NS(=O)(=O)C1CC1 [Compound I-2, (3R,5S)-1-((S)-2-(tert-butoxycarbonylamino)-3-(vinylsulfonamido)propanoyl)-5-((1R,2S)-1-(cyclopropylsulfonylcarbamoyl)-2-vinylcyclopropylcarbamoyl)pyrrolidin-3-yl 4-fluoroisoindoline-2-carboxylate] | 7.00 to 8.00 | 100 to 1000 | measurable covalent modification | > 8.00 | > 8.00 | > 8.00 |  | 
C=CC(=O)NCC[C@H](NC(=O)OC(C)(C)C)C(=O)N1C[C@H](OC(=O)N2Cc3cccc(F)c3C2)C[C@H]1C(=O)N[C@]1(C(=O)NS(=O)(=O)C2CC2)C[C@H]1C=C [Compound I-5, (3R,5S)-1-((S)-4-acrylamido-2-(tert-butoxycarbonylamino)butanoyl)-5-((1R,2S)-1-(cyclopropylsulfonylcarbamoyl)-2-vinylcyclopropylcarbamoyl)pyrrolidin-3-yl 4-fluoroisoindoline-2-carboxylate] | 7.00 to 8.00 | 100 to 1000 | measurable covalent modification | 6.00 to 7.00 | > 8.00 | 7.00 to 8.00 |  | 
C=CC(=O)N(C)CC[C@H](NC(=O)OC(C)(C)C)C(=O)N1C[C@H](OC(=O)N2Cc3cccc(F)c3C2)C[C@H]1C(=O)N[C@]1(C(=O)NS(=O)(=O)C2CC2)C[C@H]1C=C [Compound I-13, (3R,5S)-1-((S)-2-(tert-butoxycarbonylamino)-4-(N-methylacrylamido)butanoyl)-5-((1R,2S)-1-(cyclopropylsulfonylcarbamoyl)-2-vinylcyclopropylcarbamoyl)pyrrolidin-3-yl 4-fluoroisoindoline-2-carboxylate] | 7.00 to 8.00 | 100 to 1000 | measurable covalent modification | 6.00 to 7.00 | > 8.00 | > 8.00 |  | 
C=CC(=O)N(C)C[C@H](NC(=O)OC1CCCC1)C(=O)N1C[C@H](OC(=O)N2Cc3cccc(F)c3C2)C[C@H]1C(=O)N[C@]1(C(=O)NS(=O)(=O)C2CC2)C[C@H]1C=C [Compound I-20, (3R,5S)-1-((S)-2-(cyclopentyloxycarbonylamino)-3-(N-methylacrylamido)propanoyl)-5-((1R,2S)-1-(cyclopropylsulfonylcarbamoyl)-2-vinylcyclopropylcarbamoyl)pyrrolidin-3-yl 4-fluoroisoindoline-2-carboxylate] | 7.00 to 8.00 | 100 to 1000 | measurable covalent modification | 7.00 to 8.00 | > 8.00 | > 8.00 |  | 
C=C[C@@H]1C[C@]1(NC(=O)[C@@H]1C[C@@H](OC(=O)N2Cc3cccc(F)c3C2)CN1C(=O)[C@@H](NC(=O)OC(C)(C)C)[C@@H](C)OC(=O)/C=C/C)C(=O)NS(=O)(=O)C1CC1 [Compound I-22, (3R,5S)-1-((2S,3R)-3-((E)-but-2-enoyloxy)-2-(tert-butoxycarbonylamino)butanoyl)-5-((1R,2S)-1-(cyclopropylsulfonylcarbamoyl)-2-vinylcyclopropylcarbamoyl)pyrrolidin-3-yl-4-fluoroisoindoline-2-carboxylate] | 7.00 to 8.00 | 10 to 100 | measurable covalent modification | 6.00 to 7.00 | > 8.00 | 7.00 to 8.00 | 7.00 to 8.00 | 
C=C[C@@H]1C[C@]1(NC(=O)[C@@H]1C[C@@H](OC(=O)N2Cc3cccc(F)c3C2)CN1C(=O)[C@H](COC(=O)C(=C)NC(=O)OC(C)(C)C)NC(=O)OC(C)(C)C)C(=O)NS(=O)(=O)C1CC1 [Compound I-23, (3R,5S)-1-((S)-2-(tert-butoxycarbonylamino)-3-(2-(tert-butoxycarbonylamino)acryloyloxy)propanoyl)-5-((1R,2S)-1-(cyclopropylsulfonylcarbamoyl)-2-vinylcyclopropylcarbamoyl)pyrrolidin-3-yl 4-fluoroisoindoline-2-carboxylate] | 7.00 to 8.00 | 100 to 1000 | measurable covalent modification | > 8.00 | > 8.00 | > 8.00 |  | 
C=C[C@@H]1C[C@]1(NC(=O)[C@@H]1C[C@@H](OC(=O)N2Cc3cccc(F)c3C2)CN1C(=O)[C@H](CCC(=O)C=C(C)C)NC(=O)OC(C)(C)C)C(=O)NS(=O)(=O)C1CC1 [Compound I-25, (3R,5S)-1-((S)-2-(tert-butoxycarbonylamino)-7-methyl-5-oxooct-6-enoyl)-5-((1R,2S)-4-(cyclopropylsulfonylcarbamoyl)-2-vinylcyclopropylcarbamoyl)pyrrolidin-3-yl 4-fluoroisoindoline-2-carboxylate] | > 8.00 | 10 to 100 | conversion to a new peak | 6.00 to 7.00 | > 8.00 | 7.00 to 8.00 | 7.00 to 8.00 | 773
C=C[C@@H]1C[C@]1(NC(=O)[C@@H]1CC(OC(=O)N2Cc3cccc(F)c3C2)CN1C(=O)[C@H](CCC(=O)C(=C)C)NC(=O)OC(C)(C)C)C(=O)NS(=O)(=O)C1CC1 (stereo partly drawn) [Compound I-27] | 7.00 to 8.00 | 100 to 1000 | measurable covalent modification | > 8.00 | > 8.00 | > 8.00 |  | 
